What was measured:
[1] = biological target: T1, HCV polymerase (NS5B) type 1b (Hepatitis C virus genotype 1b, UniProt P26663); assay: Assay of enzyme (HCV polymerase) inhibitory activity, type 1b enzyme; type: biochemical, HCV BK strain (type 1b); details: HCV polymerase inhibitory activity (IC50), 1b, type 1b enzyme 0.5 μg/ml, 25° C., 60 min
T1 construct: a region encoding NS5B (J Virol 1991 March, 65(3), 1105-13, 544 amino acids after deletion of 47 amino acids on the C-terminal); 6xHis (C); made in house; host or cells: Escherichia coli
Method in brief: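 Polymerase activity was followed as radiolabelled UTP incorporation by E. coli-expressed, His-tagged NS5B of HCV type 1b lacking its last 47 residues. Conditions: 2 μM UTP, 50 μM other NTPs, Mg2+ buffer at pH 7.5, 25 °C for 60 min. Inhibition relative to compound-free reactions gave IC50.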

[2] = biological target: T2, HCV polymerase (NS5B) type 1a (Hepatitis C virus genotype 1a, UniProt P26664); assay: Assay of enzyme (HCV polymerase) inhibitory activity, type 1a enzyme; type: biochemical, HCV type 1a (cloned from the blood of patients); details: HCV polymerase inhibitory activity (IC50), 1a, type 1a enzyme 1.5 μg/ml, 25° C., 60 min
T2 construct: made in house; host or cells: Escherichia coli (by the 'similar method' of the 1b enzyme)
Method in brief: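 IC50 values derive from radioactivity of newly synthesized RNA with versus without test compound. The enzyme was C-terminally truncated type 1a NS5B, 1.5 μg/ml, run 60 min at 25° C with 3H-UTP-labelled nucleotides.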

Row | SMILES | IC50 [1] [nM] | IC50 [2] [nM]
1 | CC(C)c1ccc(CNC(=O)[C@H]2CN(C(=O)Nc3cccc(Cl)c3)CCN2S(=O)(=O)c2ccc(C(F)(F)F)cc2)cc1 [Example 270, (R)-4-(4-trifluoromethyl-benzenesulfonyl)-piperazine-1,3-dicarboxylic acid 1-[(3-chloro-phenyl)-amide] 3-(4-isopropyl-benzylamide)] | 100 to 1000 | > 1000
2 | CC(C)c1ccc(CNC(=O)[C@H]2CN(C(=O)Nc3ccc(Cl)cc3)CCN2S(=O)(=O)c2ccc(C(F)(F)F)cc2)cc1 [Example 271, (R)-4-(4-trifluoromethyl-benzenesulfonyl)-piperazine-1,3-dicarboxylic acid 1-[(4-chloro-phenyl)-amide] 3-(4-isopropyl-benzylamide)] | > 1000 | > 1000
3 | COc1ccccc1NC(=O)N1CCN(S(=O)(=O)c2ccc(C(F)(F)F)cc2)[C@@H](C(=O)NCc2ccc(C(C)C)cc2)C1 [Example 272, (R)-4-(4-trifluoromethyl-benzenesulfonyl)-piperazine-1,3-dicarboxylic acid 3-(4-isopropyl-benzylamide) 1-[(2-methoxy-phenyl)-amide]] | 100 to 1000 | > 1000
4 | COc1cccc(NC(=O)N2CCN(S(=O)(=O)c3ccc(C(F)(F)F)cc3)[C@@H](C(=O)NCc3ccc(C(C)C)cc3)C2)c1 [Example 273, (R)-4-(4-trifluoromethyl-benzenesulfonyl)-piperazine-1,3-dicarboxylic acid 3-(4-isopropyl-benzylamide) 1-[(3-methoxy-phenyl)-amide]] | 100 to 1000 | > 1000
5 | CC(C)c1ccc(CNC(=O)[C@H]2CN(C(=O)CNC(=O)CCC(=O)O)CCN2S(=O)(=O)c2ccc(C(F)(F)F)cc2)cc1 [Example 274, N-{2-[(R)-3-(4-isopropyl-benzylcarbamoyl)-4-(4-trifluoromethyl-benzenesulfonyl)-piperazin-1-yl]-2-oxo-ethyl}-succinamic acid] | 100 to 1000 | > 1000
6 | COC(=O)c1cccc(NC(=O)N2CCN(S(=O)(=O)c3ccc(C(F)(F)F)cc3)[C@@H](C(=O)NCc3ccc(C(C)C)cc3)C2)c1 [Example 275, 3-{[(R)-3-(4-isopropyl-benzylcarbamoyl)-4-(4-trifluoromethyl-benzenesulfonyl)-piperazine-1-carbonyl]-amino}-benzoic acid methyl ester] | 100 to 1000 | 100 to 1000
7 | COC(=O)c1ccc(NC(=O)N2CCN(S(=O)(=O)c3ccc(C(F)(F)F)cc3)[C@@H](C(=O)NCc3ccc(C(C)C)cc3)C2)cc1 [Example 276, 4-{[(R)-3-(4-isopropyl-benzylcarbamoyl)-4-(4-trifluoromethyl-benzenesulfonyl)-piperazine-1-carbonyl]-amino}-benzoic acid methyl ester] | 100 to 1000 | 100 to 1000
8 | COc1ccc(NC(=O)N2CCN(S(=O)(=O)c3ccc(C(F)(F)F)cc3)[C@@H](C(=O)NCc3ccc(C(C)C)cc3)C2)cc1 [Example 277, (R)-4-(4-trifluoromethyl-benzenesulfonyl)-piperazine-1,3-dicarboxylic acid 3-(4-isopropyl-benzylamide) 1-[(4-methoxy-phenyl)-amide]] | 100 to 1000 | > 1000
9 | CC(C)c1ccc(CNC(=O)[C@H]2CN(C(=O)Cn3ncnn3)CCN2S(=O)(=O)c2ccc(C(F)(F)F)cc2)cc1 [Example 278, (R)-4-(2-tetrazol-2-yl-acetyl)-1-(4-trifluoromethyl-benzenesulfonyl)-piperazine-2-carboxylic acid 4-isopropyl-benzylamide] | < 100 | < 100
10 | COCC(=O)N1CCN(S(=O)(=O)c2ccc(C(F)(F)F)cc2)[C@@H](C(=O)NCc2ccc(C(C)C)cc2)C1 [Example 279, (R)-4-(2-methoxy-acetyl)-1-(4-trifluoromethyl-benzenesulfonyl)-piperazine-2-carboxylic acid 4-isopropyl-benzylamide] | 100 to 1000 | 100 to 1000

Source: patent US8017612B2, “Piperazine compound and use thereof as a HCV polymerase inhibitor” (priority 2006, dated 2011)
